From ChEMBL document CHEMBL3861995 (Bioorg Med Chem, 2016)

Key:
[1] = biological target: T1, Protein kinase C (PKC) (Homo sapiens) (UniProt O94806+P41743+P17252+P05129+Q05655+P05771+Q05513+Q02156+P24723+Q15139+Q04759); experiment: Inhibition of PKC in human SH-SY5Y cells assessed as inhibition of PMA-stimulated MARCKS phosphorylation at 3 uM preincubated for 1 hr followed by PMA-stimulation for 15 mins by Western blot analysis relative to control; type: cell-based
[2] = biological target: T1, Protein kinase C (PKC) (Homo sapiens); experiment: Inhibition of PKC in human SH-SY5Y cells assessed as inhibition of PMA-stimulated MARCKS phosphorylation at 10 uM preincubated for 1 hr followed by PMA-stimulation for 15 mins by Western blot analysis relative to control; type: cell-based
Estrogen receptor = biological target: T2, Estrogen receptor (Homo sapiens, UniProt P03372); experiment: biochemical
T2 sequence (P03372 whole entry): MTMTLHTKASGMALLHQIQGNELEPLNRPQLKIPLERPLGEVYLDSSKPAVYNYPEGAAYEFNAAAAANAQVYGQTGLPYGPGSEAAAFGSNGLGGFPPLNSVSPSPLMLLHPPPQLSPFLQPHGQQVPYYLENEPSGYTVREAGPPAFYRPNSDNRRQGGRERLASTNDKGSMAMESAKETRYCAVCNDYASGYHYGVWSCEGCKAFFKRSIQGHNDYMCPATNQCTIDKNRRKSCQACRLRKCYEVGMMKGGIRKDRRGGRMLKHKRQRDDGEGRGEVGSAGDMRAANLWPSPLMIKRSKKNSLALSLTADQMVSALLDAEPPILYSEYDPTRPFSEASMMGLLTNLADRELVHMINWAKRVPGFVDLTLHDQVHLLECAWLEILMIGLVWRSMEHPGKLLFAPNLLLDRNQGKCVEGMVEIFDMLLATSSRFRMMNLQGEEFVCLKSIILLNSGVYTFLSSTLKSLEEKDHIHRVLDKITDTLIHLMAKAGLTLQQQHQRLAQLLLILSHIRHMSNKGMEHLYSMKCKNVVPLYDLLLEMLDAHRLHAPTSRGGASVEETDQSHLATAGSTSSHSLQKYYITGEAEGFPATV
Description: Displacement of Fluormone ES2 Green from human recombinant full length ERalpha expressed in insect cells measured up to 4 hrs by fluorescence polarization assay

Row | Compound | inhibition [1] | inhibition [2] | IC50 (Estrogen receptor)
1 | CN(C)CCOc1ccc(C(=C(C#N)c2ccccc2)c2ccccc2)cc1 | 22% | 67% | 
2 | N#CC(=C(c1ccc(OCCN2CCOCC2)cc1)c1ccc(OCCN2CCOCC2)cc1)c1ccccc1 | 62% | 72% | 0.553 µM
3 | N#C/C(=C(\c1ccccc1)c1ccc(OCCN2CCOCC2)cc1)c1ccccc1 | 43% | 57% | 
4 | CN1CCN(CCOc2ccc(C(=C(C#N)c3ccccc3)c3ccc(OCCN4CCN(C)CC4)cc3)cc2)CC1 | 83% | 78% | > 10 µM
5 | N#C/C(=C(/c1ccccc1)c1ccc(OCCN2CCOCC2)cc1)c1ccccc1 | 37% | 70% | 
6 | CCN(CC)CCOc1ccc(C(=C(C#N)c2ccccc2)c2ccc(OCCN(CC)CC)cc2)cc1 | 12% | 68% | > 10 µM
7 | CN(C)CCOc1ccc(C(=C(C#N)c2cccs2)c2ccc(OCCN(C)C)cc2)cc1 | 39% | 68% | > 10 µM
